According to EP3033337B1, “SUBSTITUTED IMIDAZOLES AS N-TYPE CALCIUM CHANNEL BLOCKERS” (Janssen Pharmaceutica NV, priority 2013, dated 2015):
Like-named read-outs stand apart in the source and are kept apart here. Blank lines part the entries; values can stand above or below the compound they belong to.

How the values were obtained:
[1] = molecular target: T1, human N-type Ca channel (Homo sapiens, UniProt Q00975); assay: Electrophysiological response, QPatch (depolarization -80 mV to +20 mV)
Procedure: The recombinant cell line described above was used in the measurement of electrophysiological properties with QPatch (Sophion). Cells were maintained in culture as mentioned above. Prior to the experiment, the flasks were moved to 30 °C and incubated for 48-72 hrs. On the day of assaying, cells were detached and harvested. The cell pellet was re-suspended in SMF4HEK (HyClone)/25mM HEPS at 2-5 million/ mL and placed on the QStirrer of the QPatch for 30-60 min prior to the start of the assay. […] Microtiter-Plate/Reference Buffer contained 140 mM TEA-Cl, 10mM BaCl2, 0.8 mM MgCl2, 10 mM HEPES pH ∼7.4 adjusted with TEA-OH/HCl, and ∼300mOsm. Cells were transferred to a QPatch 48 plate and gigaseal was formed. The plate was perfused with intracellular and extracellular buffer. […] In brief, cells were depolarized from resting potential of -80 mV to +20 mV and current was recorded. Data was plotted as percent inhibition vs concentration of the compound and IC50 values were generated using Graphpad Prism non-linear regression analysis.

[2] = molecular target: T1, human N-type Ca channel; assay: Calcium influx assay (FDSS), KCl depolarization, Fluo8 dye; assay type: cell-based; parameters: host or cells: HEK 293; settings: HEK 293 cells expressing human N-type Ca channel; 100 mM KCl; read-out: N Type IC50 Data FDSS
Procedure: All cell culture reagents were procured from HyClone and other reagents were from Fisher. Recombinant HEK 293 cells expressing human N-type Ca channel (Millipore) were maintained in DMEM F12 containing 10% FBS and selection antibiotics at 37 °C in 5% CO2.
Cells were incubated at 30 °C in 5% CO2 overnight. The medium was removed and cells were loaded with Fluo8 dye (AAT Bioquest) at 37 °C and 30 °C, 30 min each in darkness. Cells were washed four times with wash buffer (16 mM Herep pH 7.2, 2 mM CaCl2, 1 mM MgCl2, 5 mM glucose, 140 mM choline chloride and 2 mM KCl) leaving 15 µL buffer after the last wash. Compounds of Formula (I), serially diluted, were added to the cell plate. The plates were incubated in darkness for 15 min. Cells were depolarized with 100 mM KCl and Ca influx was measured.

[3] = N Type IC50 Data Qpatch Pulse=1, Pulse=1, concentration range 0.3-10 µM
[4] = N Type IC50 Data Qpatch Pulse=15, Pulse=15, concentration range 0.3-10 µM
[5] = N Type IC50 Data Qpatch Pulse=1, Pulse=1, concentration range 0.01-1 µM
[6] = N Type IC50 Data Qpatch Pulse=15, Pulse=15, concentration range 0.01-1 µM
[7] = Pulse=1, concentration range 0.01-1 µM
[8] = Pulse=15, concentration range 0.01-1 µM
[9] = read-out: N Type IC50 Data Qpatch Pulse=1, Pulse=1, concentration range 0.01-1 µM
[10] = read-out: N Type IC50 Data Qpatch Pulse=15, Pulse=15, concentration range 0.01-1 µM
[11] = Pulse=15, concentration range 0.01-0.3 µM
[12] = N Type IC50 Data Qpatch Pulse=1, Pulse=1, concentration range 0.01-0.3 µM
[13] = read-out: Qpatch Pulse=1 (percent inhibition)

T1 sequence (Q00975 whole entry): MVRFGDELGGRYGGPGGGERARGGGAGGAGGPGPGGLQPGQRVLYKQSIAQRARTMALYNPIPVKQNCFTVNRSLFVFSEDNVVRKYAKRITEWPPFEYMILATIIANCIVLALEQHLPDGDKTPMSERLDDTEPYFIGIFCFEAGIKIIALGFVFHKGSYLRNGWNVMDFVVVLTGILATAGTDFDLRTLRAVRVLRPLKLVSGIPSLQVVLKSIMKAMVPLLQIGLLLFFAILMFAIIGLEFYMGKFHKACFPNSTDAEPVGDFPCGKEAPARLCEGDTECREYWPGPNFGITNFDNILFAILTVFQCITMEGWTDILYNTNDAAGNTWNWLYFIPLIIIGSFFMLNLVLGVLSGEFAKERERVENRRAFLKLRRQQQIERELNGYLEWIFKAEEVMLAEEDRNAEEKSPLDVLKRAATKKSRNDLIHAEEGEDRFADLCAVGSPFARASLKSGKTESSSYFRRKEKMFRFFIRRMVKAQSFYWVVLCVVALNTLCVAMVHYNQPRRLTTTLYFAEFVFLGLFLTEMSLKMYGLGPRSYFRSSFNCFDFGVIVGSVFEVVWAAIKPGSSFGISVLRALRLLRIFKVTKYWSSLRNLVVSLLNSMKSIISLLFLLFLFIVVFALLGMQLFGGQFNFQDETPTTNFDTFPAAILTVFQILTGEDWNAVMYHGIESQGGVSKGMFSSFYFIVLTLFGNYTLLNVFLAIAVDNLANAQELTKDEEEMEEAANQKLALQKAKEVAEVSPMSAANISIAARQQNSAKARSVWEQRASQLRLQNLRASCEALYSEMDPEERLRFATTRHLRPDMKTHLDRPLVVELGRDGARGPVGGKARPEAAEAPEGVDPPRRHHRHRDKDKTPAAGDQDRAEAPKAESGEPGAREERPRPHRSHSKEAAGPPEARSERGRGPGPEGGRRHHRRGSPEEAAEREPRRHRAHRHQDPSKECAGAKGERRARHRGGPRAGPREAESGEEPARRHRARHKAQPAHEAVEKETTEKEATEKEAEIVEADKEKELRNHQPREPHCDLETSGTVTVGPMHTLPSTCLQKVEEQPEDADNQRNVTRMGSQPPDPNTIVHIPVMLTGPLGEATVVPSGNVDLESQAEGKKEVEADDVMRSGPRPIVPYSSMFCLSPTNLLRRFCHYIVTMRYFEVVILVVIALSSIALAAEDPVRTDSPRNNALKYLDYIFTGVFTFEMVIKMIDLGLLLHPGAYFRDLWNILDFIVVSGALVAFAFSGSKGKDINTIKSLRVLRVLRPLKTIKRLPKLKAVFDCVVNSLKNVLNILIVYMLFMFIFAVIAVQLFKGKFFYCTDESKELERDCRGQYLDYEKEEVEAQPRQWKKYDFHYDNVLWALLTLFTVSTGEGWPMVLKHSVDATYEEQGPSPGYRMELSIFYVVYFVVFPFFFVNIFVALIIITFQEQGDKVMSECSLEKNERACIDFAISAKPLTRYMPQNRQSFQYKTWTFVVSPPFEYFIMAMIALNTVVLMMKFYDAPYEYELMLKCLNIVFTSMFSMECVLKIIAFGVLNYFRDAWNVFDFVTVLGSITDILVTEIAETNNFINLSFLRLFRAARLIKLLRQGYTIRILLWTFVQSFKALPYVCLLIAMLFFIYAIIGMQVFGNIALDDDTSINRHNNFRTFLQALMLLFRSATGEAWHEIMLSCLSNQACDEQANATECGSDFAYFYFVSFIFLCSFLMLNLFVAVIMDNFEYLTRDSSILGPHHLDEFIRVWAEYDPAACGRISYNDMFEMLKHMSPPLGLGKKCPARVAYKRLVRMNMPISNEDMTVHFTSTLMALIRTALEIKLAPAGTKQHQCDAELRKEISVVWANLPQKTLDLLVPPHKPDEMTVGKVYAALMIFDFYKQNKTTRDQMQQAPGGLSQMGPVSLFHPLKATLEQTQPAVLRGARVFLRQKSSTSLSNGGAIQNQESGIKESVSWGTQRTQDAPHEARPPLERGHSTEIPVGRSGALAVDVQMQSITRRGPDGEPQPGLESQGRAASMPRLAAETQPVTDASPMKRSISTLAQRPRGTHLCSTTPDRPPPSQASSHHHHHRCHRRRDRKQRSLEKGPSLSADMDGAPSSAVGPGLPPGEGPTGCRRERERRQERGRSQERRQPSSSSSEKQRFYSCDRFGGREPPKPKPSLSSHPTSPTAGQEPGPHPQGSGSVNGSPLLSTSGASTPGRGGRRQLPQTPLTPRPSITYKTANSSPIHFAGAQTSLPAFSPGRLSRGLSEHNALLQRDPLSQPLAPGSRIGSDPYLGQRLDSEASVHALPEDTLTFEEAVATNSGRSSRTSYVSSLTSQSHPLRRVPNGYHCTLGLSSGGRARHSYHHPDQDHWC
T1 sequence (P54284 whole entry partner): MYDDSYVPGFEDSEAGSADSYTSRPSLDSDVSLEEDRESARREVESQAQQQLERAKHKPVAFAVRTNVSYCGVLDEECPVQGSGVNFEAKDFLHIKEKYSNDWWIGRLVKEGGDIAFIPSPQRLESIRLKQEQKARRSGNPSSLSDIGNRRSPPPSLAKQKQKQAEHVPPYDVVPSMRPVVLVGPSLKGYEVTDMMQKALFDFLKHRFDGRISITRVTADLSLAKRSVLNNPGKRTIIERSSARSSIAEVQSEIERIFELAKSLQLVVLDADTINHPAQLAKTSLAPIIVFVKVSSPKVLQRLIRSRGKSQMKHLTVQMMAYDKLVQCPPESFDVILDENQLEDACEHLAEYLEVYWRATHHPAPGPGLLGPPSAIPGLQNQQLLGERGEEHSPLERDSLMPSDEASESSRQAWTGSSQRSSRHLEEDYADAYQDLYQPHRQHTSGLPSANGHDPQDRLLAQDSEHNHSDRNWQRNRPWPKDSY
T1 sequence (P54289 25-956 partner limits assumed): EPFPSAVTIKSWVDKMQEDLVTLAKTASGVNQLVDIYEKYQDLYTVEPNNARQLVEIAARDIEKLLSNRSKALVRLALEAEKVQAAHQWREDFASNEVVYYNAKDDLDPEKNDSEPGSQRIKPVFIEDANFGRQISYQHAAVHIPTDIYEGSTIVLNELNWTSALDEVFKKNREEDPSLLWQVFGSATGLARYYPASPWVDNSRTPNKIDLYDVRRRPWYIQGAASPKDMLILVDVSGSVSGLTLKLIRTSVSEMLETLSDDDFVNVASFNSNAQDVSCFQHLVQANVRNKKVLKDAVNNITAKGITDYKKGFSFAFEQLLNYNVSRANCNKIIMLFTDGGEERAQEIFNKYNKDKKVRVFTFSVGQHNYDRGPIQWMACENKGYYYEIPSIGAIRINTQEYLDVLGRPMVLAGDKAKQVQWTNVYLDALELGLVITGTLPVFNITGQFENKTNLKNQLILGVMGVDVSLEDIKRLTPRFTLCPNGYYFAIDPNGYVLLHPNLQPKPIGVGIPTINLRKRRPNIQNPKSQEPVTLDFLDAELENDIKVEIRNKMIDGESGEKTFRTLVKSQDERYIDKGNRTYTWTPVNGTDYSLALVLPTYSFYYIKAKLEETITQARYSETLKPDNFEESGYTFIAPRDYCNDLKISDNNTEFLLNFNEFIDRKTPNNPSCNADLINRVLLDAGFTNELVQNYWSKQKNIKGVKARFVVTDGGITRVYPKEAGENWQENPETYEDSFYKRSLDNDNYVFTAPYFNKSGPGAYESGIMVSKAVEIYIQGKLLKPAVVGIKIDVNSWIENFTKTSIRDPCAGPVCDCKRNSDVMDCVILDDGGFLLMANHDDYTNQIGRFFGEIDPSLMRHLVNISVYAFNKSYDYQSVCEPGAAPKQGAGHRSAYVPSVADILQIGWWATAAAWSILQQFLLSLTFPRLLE
T1 sequence (P54289 957-1103 partner limits assumed): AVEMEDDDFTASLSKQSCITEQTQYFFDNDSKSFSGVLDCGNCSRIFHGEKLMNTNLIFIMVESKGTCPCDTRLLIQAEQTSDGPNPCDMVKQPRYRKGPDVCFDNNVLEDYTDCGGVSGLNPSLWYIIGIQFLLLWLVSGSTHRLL

SMILES: COc1ccccc1-c1nc(C2CC(C)(C)OC(C)(C)C2)cn1-c1ccc(C(F)(F)F)nc1 [Compound 53, 5-(2-(2-methoxyphenyl)-4-(2,2,6,6-tetramethyltetrahydro-2H-pyran-4-yl)-1H-imidazol-1-yl)-2-(trifluoromethyl)pyridine]
IC50 [1, 3]: 6500 nM | IC50 [1, 4]: 2010 nM | IC50 [2]: 96 nM

SMILES: CC1(C)CC(c2cn(-c3ccc(Cl)cc3)c(CC3CC3)n2)CC(C)(C)O1 [Compound 55, 1-(4-chlorophenyl)-2-(cyclopropylmethyl)-4-(2,2,6,6-tetramethyltetrahydro-2H-pyran-4-yl)-1H-imidazole]
IC50 [1, 6]: 780 nM | IC50 [2]: 384 nM

SMILES: CC1(C)CC(c2cn(-c3ccc(C#N)cc3)c(CC3CC3)n2)CC(C)(C)O1 [Compound 58, 4-(2-(cyclopropylmethyl)-4-(2,2,6,6-tetramethyltetrahydro-2H-pyran-4-yl)-1H-imidazol-1-yl)benzonitrile]
IC50 [1, 9]: > 1000 nM | IC50 [1, 10]: > 1000 nM | IC50 [2]: 4810 nM

SMILES: CC1(C)CC(c2cn(-c3ccc(C(F)(F)F)nc3)c(CC3CC3)n2)CC(C)(C)O1 [Compound 59, 5-(2-(cyclopropylmethyl)-4-(2,2,6,6-tetramethyltetrahydro-2H-pyran-4-yl)-1H-imidazol-1-yl)-2-(trifluoromethyl)pyridine]
N Type IC50 Data Qpatch Pulse=1 ([1]; Pulse=1, concentration range 0.01-0.3 µM): poor fit(0.01-0.3 µM) | N Type IC50 Data Qpatch Pulse=15 [1, 11]: poor fit(0.01-0.3 µM) | IC50 [2]: 4400 nM

SMILES: COc1ccccc1-c1nc(C2CC(C)(C)OC(C)(C)C2)cn1-c1ccc(Br)c(F)c1 [Compound 62, 1-(4-bromo-3-fluorophenyl)-2-(2-methoxyphenyl)-4-(2,2,6,6-tetramethyltetrahydro-2H-pyran-4-yl)-1H-imidazole]
IC50 [1, 4]: 413 nM | inhibition at 10 µM [1, 13]: 81% | IC50 [2]: 177 nM

SMILES: COc1ccccc1-c1nc(C2CC(C)(C)OC(C)(C)C2)cn1-c1ccc(F)c(Br)c1 [Compound 63, 1-(3-bromo-4-fluorophenyl)-2-(2-methoxyphenyl)-4-(2,2,6,6-tetramethyltetrahydro-2H-pyran-4-yl)-1H-imidazole]
IC50 [1, 4]: 3500 nM | inhibition at 10 µM [1, 13]: 53% | IC50 [2]: 213 nM

SMILES: COc1ncccc1-c1nc(C2CC(C)(C)OC(C)(C)C2)cn1-c1ccc(F)c(Br)c1 [Compound 64, 3-(1-(3-bromo-4-fluorophenyl)-4-(2,2,6,6-tetramethyltetrahydro-2H-pyran-4-yl)-1H-imidazol-2-yl)-2-methoxypyridine]
IC50 [1, 3]: 4060 nM | IC50 [1, 4]: 1720 nM | IC50 [2]: 360 nM

SMILES: COc1ncccc1-c1nc(C2CC(C)(C)OC(C)(C)C2)cn1-c1ccc(Br)c(F)c1 [Compound 65, 3-(1-(4-bromo-3-fluorophenyl)-4-(2,2,6,6-tetramethyltetrahydro-2H-pyran-4-yl)-1H-imidazol-2-yl)-2-methoxypyridine]
IC50 [1, 4]: 8600 nM | inhibition at 10 µM [1, 13]: 58% | IC50 [2]: 225 nM

SMILES: COc1cnccc1-c1nc(C2CC(C)(C)OC(C)(C)C2)cn1-c1ccc(Cl)cc1 [Compound 66, 4-(1-(4-chlorophenyl)-4-(2,2,6,6-tetramethyltetrahydro-2H-pyran-4-yl)-1H-imidazol-2-yl)-3-methoxypyridine]
IC50 [1, 4]: 1300 nM | IC50 [2]: 49 nM

SMILES: COc1ccncc1-c1nc(C2CC(C)(C)OC(C)(C)C2)cn1-c1ccc(F)cc1 [Compound 69, 3-(1-(4-fluorophenyl)-4-(2,2,6,6-tetramethyltetrahydro-2H-pyran-4-yl)-1H-imidazol-2-yl)-4-methoxypyridine]
inhibition at 10 µM [1, 13]: 53% | inhibition at 10 µM ([1]; read-out: Qpatch Pulse=15 (percent inhibition)): 29% | IC50 [2]: 1430 nM

SMILES: COc1cccnc1-c1nc(C2CC(C)(C)OC(C)(C)C2)cn1-c1ccc(F)cc1 [Compound 70, 2-(1-(4-fluorophenyl)-4-(2,2,6,6-tetramethyltetrahydro-2H-pyran-4-yl)-1H-imidazol-2-yl)-3-methoxypyridine]
inhibition at 10 µM [1, 13]: 41% | IC50 [2]: 871 nM

SMILES: COc1ncccc1-c1nc(C2CC(C)(C)OC(C)(C)C2)cn1-c1cc(F)cc(F)c1 [Compound 72, 3-(1-(3,5-difluorophenyl)-4-(2,2,6,6-tetramethyltetrahydro-2H-pyran-4-yl)-1H-imidazol-2-yl)-2-methoxypyridine]
N Type IC50 Data Qpatch Pulse=1 [1, 7]: poor fit(0.01- 1 µM) | N Type IC50 Data Qpatch Pulse=15 [1, 8]: poor fit(0.01- 1 µM) | IC50 [2]: 2400 nM

SMILES: CCOc1ccc(-n2cc(C3CC(C)(C)OC(C)(C)C3)nc2-c2cccnc2OC)cn1 [Compound 75, 3-(1-(6-ethoxypyridin-3-yl)-4-(2,2,6,6-tetramethyltetrahydro-2H-pyran-4-yl)-1H-imidazol-2-yl)-2-methoxypyridine]
IC50 [1, 3]: 9800 nM | IC50 [1, 4]: 4200 nM | IC50 [2]: 2060 nM

SMILES: COc1ncccc1-c1nc(C2CC(C)(C)OC(C)(C)C2)cn1-c1ccc(C#N)cc1F [Compound 76, 3-fluoro-4-(2-(2-methoxypyridin-3-yl)-4-(2,2,6,6-tetramethyltetrahydro-2H-pyran-4-yl)-1H-imidazol-1-yl)benzonitrile]
IC50 [1, 5]: > 1000 nM | IC50 [1, 10]: > 1000 nM | IC50 [2]: 151 nM

The remaining compounds from weak to strong by IC50 [2], led by results:

IC50 [1, 9]: > 1000 nM | IC50 [1, 10]: > 1000 nM | IC50 [2]: 10000 nM
SMILES: CC1(C)CC(c2cn(-c3ccc(C#N)cc3)c(C3CC3)n2)CC(C)(C)O1 [Compound 57, 4-(2-cyclopropyl-4-(2,2,6,6-tetramethyltetrahydro-2H-pyran-4-yl)-1H-imidazol-1-yl)benzonitrile]

IC50 [1, 5]: > 1000 nM | IC50 [1, 10]: > 1000 nM | IC50 [2]: 10000 nM
SMILES: COc1cc(-n2cc(C3CC(C)(C)OC(C)(C)C3)nc2-c2cccnc2OC)ccc1C#N [Compound 77, 2-methoxy-4-(2-(2-methoxypyridin-3-yl)-4-(2,2,6,6-tetramethyltetrahydro-2H-pyran-4-yl)-1H-imidazol-1-yl)benzonitrile]

N Type IC50 Data Qpatch Pulse=1 [1, 7]: poor fit(0.01- 1 µM) | N Type IC50 Data Qpatch Pulse=15 [1, 8]: poor fit(0.01- 1 µM) | IC50 [2]: 8160 nM
SMILES: COc1ncccc1-c1nc(C2CC(C)(C)OC(C)(C)C2)cn1-c1cc(F)cc(C#N)c1 [Compound 73, 3-fluoro-5-(2-(2-methoxypyridin-3-yl)-4-(2,2,6,6-tetramethyltetrahydro-2H-pyran-4-yl)-1H-imidazol-1-yl)benzonitrile]

IC50 [1, 5]: 302 nM | IC50 [1, 6]: 237 nM | N Type IC50 Data Qpatch Pulse=1 [1, 7]: Poor fit | N Type IC50 Data Qpatch Pulse=15 [1, 8]: Poor fit | IC50 [2]: 1960 nM
SMILES: COc1ncccc1-c1nc(C2CC(C)(C)OC(C)(C)C2)cn1-c1ccc(C(F)(F)F)nc1 [Compound 54, 2-methoxy-3-(4-(2,2,6,6-tetramethyltetrahydro-2H-pyran-4-yl)-1-(6-(trifluoromethyl)pyridin-3-yl)-1H-imidazol-2-yl)pyridine]

IC50 [1, 9]: > 1000 nM | IC50 [1, 10]: > 1000 nM | IC50 [2]: 1670 nM
SMILES: CC1(C)CC(c2cn(-c3ccc(Cl)cc3)c(C3CC3)n2)CC(C)(C)O1 [Compound 56, 1-(4-chlorophenyl)-2-cyclopropyl-4-(2,2,6,6-tetramethyltetrahydro-2H-pyran-4-yl)-1H-imidazole]

IC50 [1, 5]: 5830 nM | N Type IC50 Data Qpatch Pulse=15 [1, 8]: poor fit(0.01- 1 µM) | IC50 [2]: 422 nM
SMILES: COc1ncccc1-c1nc(C2CC(C)(C)OC(C)(C)C2)cn1-c1cc(F)ccc1F [Compound 71, 3-(1-(2,5-difluorophenyl)-4-(2,2,6,6-tetramethyltetrahydro-2H-pyran-4-yl)-1H-imidazol-2-yl)-2-methoxypyridine]

IC50 [1, 12]: 247 nM | N Type IC50 Data Qpatch Pulse=15 [1, 11]: poor fit(0.01-0.3 µM) | IC50 [2]: 321 nM
SMILES: CCOc1nccnc1-c1nc(C2CC(C)(C)OC(C)(C)C2)cn1-c1ccc(Cl)cc1 [Compound 60, 2-(1-(4-chlorophenyl)-4-(2,2,6,6-tetramethyltetrahydro-2H-pyran-4-yl)-1H-imidazol-2-yl)-3-ethoxypyrazine]

IC50 [1, 10]: > 1000 nM | IC50 [2]: 234 nM
SMILES: COc1ncccc1-c1nc(C2CC(C)(C)OC(C)(C)C2)cn1-c1ccc(C#N)c(Cl)c1 [Compound 78, 2-chloro-4-(2-(2-methoxypyridin-3-yl)-4-(2,2,6,6-tetramethyltetrahydro-2H-pyran-4-yl)-1H-imidazol-1-yl)benzonitrile]

IC50 [1, 4]: 4600 nM | IC50 [2]: 109 nM
SMILES: COc1ccncc1-c1nc(C2CC(C)(C)OC(C)(C)C2)cn1-c1ccc(Cl)cc1 [Compound 68, 3-(1-(4-chlorophenyl)-4-(2,2,6,6-tetramethyltetrahydro-2H-pyran-4-yl)-1H-imidazol-2-yl)-4-methoxypyridine]

IC50 [1, 12]: 751 nM | IC50 ([1]; N Type IC50 Data Qpatch Pulse=15, Pulse=15, concentration range 0.01-0.3 µM): 1050 nM | IC50 [2]: 37 nM
SMILES: COc1ccccc1-c1nc(C2CC(C)(C)OC(C)(C)C2)cn1-c1ccc(OC(F)F)cc1 [Compound 61, 1-(4-(difluoromethoxy)phenyl) -2-(2-methoxyphenyl)-4-(2,2,6,6-tetramethyltetrahydro-2H-pyran-4-yl)-1H-imidazole]
